Here are results for 2 molecules from patent US20120121535A1, “AGENT FOR PREVENTING RECURRENCE OF LEUKEMIA” (RIKEN, priority 2009, published 2012).

For test [1], the system named is CD34+CD38− LSCs and CD34+CD38+ AML non-stem cells. The test is described as follows: Activated caspase-3 flow cytometry of BM cells undergoing apoptosis. The note with it: in vivo administration, recipient BM. Also on record: species or system NOD/SCID/IL2rg^null mice transplanted with human AML. For orientation: A flow cytometer gives signals particle by particle.
Procedure: Myelocytes were recovered from two tibiae and one femur from each analyzed recipient; MNCs (mononucleocytes) were counted manually and using an automated blood cell analyzer (Celltac α, Nihon Kohden, Japan), and the absolute number of BMMNCs derived from each recipient was estimated. The absolute number of human CD34^+ cells (derived from two tibiae and one femur) per mouse was determined by multiplying the thus-obtained total BMMNC count by 7AAD^−hCD45^+hCD34^+ BM cells (%). BrdU uptake was measured using a BrdU flow kit (BD Pharmingen, Calif.). To quantify cells in the G0 phase of the cell cycle, the cells were stained with Hoechst 33342 and Pyronin Y, and then surface-stained using standard procedures. […]

The test system of another test is LSCs. The test is described as follows: Limited dilution secondary transplantation of sorted hCD34+ BM cells (LSC frequency, survival of secondary recipients). It counts as in vivo, NOD/SCID/IL2rg^null mice transplanted with human AML. The note with it: secondary recipients of hCD34+ cells from treated mice. An excerpt: Newborn (within 2 days of birth) NOD/SCID/IL2rg^null recipient received 150 cGy of total body irradiation using a ^137Cs-source irradiator, followed by intravenous injection of AML cells within two hours. For primary transplantation, 10^3 to 5×10^4 sorted BM cells per recipient from a 7AAD^− lineage (hCD3/hCD4/hCD8) ^−hCD34^+hCD38^− AML patient were used, as described in F. Ishikawa et al., Nat. Biotechnol. 25, 1315 (2007). For secondary transplantation after administration of Ara-C (cytarabine) alone or after administration of G-CSF followed by administration of Ara-C, 2×10^2, 2×10^3, 2×10^4, or 2×10^5 sorted 7AAD^−hCD45^+hCD34^+ BM cells per recipient were used. For fluorescence-activated cell sorting, BMMNC cells from AML patients were labeled with fluorescent dye-conjugated mouse anti-hCD3, anti-hCD4, anti-hCD8, anti-hCD34 and anti-hCD38 monoclonal antibodies (BD Immunocytometry), and BMMNC cells from recipients were labeled with mouse anti-hCD45, anti-hCD34 and anti-hCD38 monoclonal antibodies (BD Immunocytometry); the cells were sorted using FACSAria (Beckton Dickinson, Calif.). Doublets were eliminated via analysis of FSC/SSC-height and FSC/SSC-width. […]
Differences in the ratios/absolute numbers of cells (%), activated caspase-negative cells (%), and BM CD34^+ cells in the cell cycle were analyzed using two-tailed t-test (GraphPad Prism, GraphPad, San Diego, Calif.). […]

The next test deals with hCD34+CD38− LSCs. The test is described as follows: Flow cytometric cell cycle analysis of LSCs in BM of recipients of primary transplantation of human AML. The class given is in vivo, NOD/SCID/IL2rg^null mice transplanted with human AML. An excerpt:
Newborn (within 2 days of birth) NOD/SCID/IL2rg^null recipient received 150 cGy of total body irradiation using a ^137Cs-source irradiator, followed by intravenous injection of AML cells within two hours. For primary transplantation, 10^3 to 5×10^4 sorted BM cells per recipient from a 7AAD^− lineage (hCD3/hCD4/hCD8) ^−hCD34^+hCD38^− AML patient were used, as described in F. Ishikawa et al., Nat. Biotechnol. 25, 1315 (2007). For secondary transplantation after administration of Ara-C (cytarabine) alone or after administration of G-CSF followed by administration of Ara-C, 2×10^2, 2×10^3, 2×10^4, or 2×10^5 sorted 7AAD^−hCD45^+hCD34^+ BM cells per recipient were used. For fluorescence-activated cell sorting, BMMNC cells from AML patients were labeled with fluorescent dye-conjugated mouse anti-hCD3, anti-hCD4, anti-hCD8, anti-hCD34 and anti-hCD38 monoclonal antibodies (BD Immunocytometry), and BMMNC cells from recipients were labeled with mouse anti-hCD45, anti-hCD34 and anti-hCD38 monoclonal antibodies (BD Immunocytometry); the cells were sorted using FACSAria (Beckton Dickinson, Calif.). Doublets were eliminated via analysis of FSC/SSC-height and FSC/SSC-width. After the sorting, the purities of hCD34^+hCD38^− cells and hCD34^+ cells exceeded 98%.
For experiments involving administration of G-CSF alone, administration of Ara-C alone, and administration of G-CSF followed by administration of Ara-C, recipients of primary transplantation of human AML were used 16 to 24 weeks after transplantation. […]
For evaluation of human AML transplantation, blood was drawn from the orbital sinus of each recipient every 3 weeks starting at week 6 after transplantation. Myelocytes were recovered from two tibiae and one femur from each analyzed recipient; MNCs (mononucleocytes) were counted manually and using an automated blood cell analyzer (Celltac α, Nihon Kohden, Japan), and the absolute number of BMMNCs derived from each recipient was estimated. The absolute number of human CD34^+ cells (derived from two tibiae and one femur) per mouse was determined by multiplying the thus-obtained total BMMNC count by 7AAD^−hCD45^+hCD34^+ BM cells (%). BrdU uptake was measured using a BrdU flow kit (BD Pharmingen, Calif.). To quantify cells in the G0 phase of the cell cycle, the cells were stained with Hoechst 33342 and Pyronin Y, and then surface-stained using standard procedures. Quantitation of cells undergoing apoptosis was performed by staining activated caspase-3 in the cells using a rabbit anti-activated caspase-3 monoclonal antibody (BD Pharmingen, Calif.). […]

In test [2] the test system is AML cells in the endosteum. The test is described as follows: HE and TUNEL staining of bone sections. The class given is in vivo, NOD/SCID/IL2rg^null mice transplanted with human AML. The note with it: bone sections of recipients. An excerpt:
For experiments involving administration of G-CSF alone, administration of Ara-C alone, and administration of G-CSF followed by administration of Ara-C, recipients of primary transplantation of human AML were used 16 to 24 weeks after transplantation. For each experiment for comparison of various dose groups, a pair of recipients was selected from among litter mates, with the same primary AML sample transplanted in the same amount on the same day so as to suppress variation among the litter mates and variation due to differences in transplantation level. […]
After administration of Ara-C alone or after administration of Ara-C following pre-administration of G-CSF, the BM of the recipients was evaluated in terms of 1) a flow cytometry fraction of activated caspase-3 positive LSCs undergoing apoptosis, 2) histological localization of cells undergoing apoptosis in the recipient BM as determined by TUNEL staining, 3) percentage and absolute number of remaining viable hCD34^+ AML cells, and 4) frequency and AML-causing potential of remaining LSCs in alternative measurements of the likelihood of AML recurrence via limited dilution and sequential transplantation of sorted hCD34^+ cells. […]

The subject of test [3] is hCD34+ cells, including LSCs. The test is described as follows: Percentage and absolute number of remaining viable hCD45+CD34+ cells in recipient BM. The class given is in vivo, NOD/SCID/IL2rg^null mice transplanted with human AML. The note with it: mean +/− SEM; for #CD45+CD34+/mouse (×10^6): two tibiae and one femur; for % CD45+CD34+: viable cells in BM. From the text: (§1) For experiments involving administration of G-CSF alone, administration of Ara-C alone, and administration of G-CSF followed by administration of Ara-C, recipients of primary transplantation of human AML were used 16 to 24 weeks after transplantation. For each experiment for comparison of various dose groups, a pair of recipients was selected from among litter mates, with the same primary AML sample transplanted in the same amount on the same day so as to suppress variation among the litter mates and variation due to differences in transplantation level. Performed were administration of recombinant human G-CSF (Wako, Japan): 300 μg/kg s.c. qd×5 days; administration of Ara-C (Biogenesis, Poole, UK): 1 g/kg i.p. qd×2 days; administration of G-CSF+Ara-C: G-CSF 300 μg/kg s.c. qd×5 days, and concurrent administration of Ara-C 1 g/kg i.p. qd×2 days on days 4 and 5 of administration. The recipients were killed 16 hours after final injection. BrdU (1.5 mg/mouse; BD Biosciences, Calif.) was injected by i.p. to recipients under a cell cycle analysis by BrdU uptake immediately after the final injection (s.c. stands for subcutaneous administration, and i.p. for intraperitoneal administration).
For evaluation of human AML transplantation, blood was drawn from the orbital sinus of each recipient every 3 weeks starting at week 6 after transplantation. Myelocytes were recovered from two tibiae and one femur from each analyzed recipient; MNCs (mononucleocytes) were counted manually and using an automated blood cell analyzer (Celltac α, Nihon Kohden, Japan), and the absolute number of BMMNCs derived from each recipient was estimated. The absolute number of human CD34^+ cells (derived from two tibiae and one femur) per mouse was determined by multiplying the thus-obtained total BMMNC count by 7AAD^−hCD45^+hCD34^+ BM cells (%). BrdU uptake was measured using a BrdU flow kit (BD Pharmingen, Calif.). To quantify cells in the G0 phase of the cell cycle, the cells were stained with Hoechst 33342 and Pyronin Y, and then surface-stained using standard procedures. Quantitation of cells undergoing apoptosis was performed by staining activated caspase-3 in the cells using a rabbit anti-activated caspase-3 monoclonal antibody (BD Pharmingen, Calif.). Surface labeling was achieved using mouse anti-human CD45, anti-CD34 and anti-CD38 monoclonal antibodies (BD Immunocytometry). Analyses were performed using FACSAria and FACSCanto II (Becton Dickinson, Calif.).
To evaluate the frequency and function of LSCs remaining after each dosing, limited dilution and secondary transplantation of living hCD34^+ BM cells, including leukemia stem cells sorted from recipients given administration of Ara-C alone or G-CSF+Ara-C, were performed. The absolute number of hCD34^+ cells was obtained from the number of mononucleocytes in two tibiae and one femur derived from each recipient, and viable hCD34^+ cell (%) was obtained by flow cytometry.
The results are shown as mean value +/− SEM; differences were examined by two-tailed t-test.

For test [4], the system named is AML cells in the endosteal region. The test is described as follows: Histological analysis of bone sections (BrdU uptake, Ki67 immunofluorescence) of recipients of human AML. It counts as in vivo, NOD/SCID/IL2rg^null mice transplanted with human AML.
Source text: as §1
Paraformaldehyde-fixed, decalcified, paraffin-embedded sections were prepared from femurs of the recipients primarily transplanted with AML. […]

The mark [5] stands for this setting: post-Ara-C, intraperitoneal, n=15.
[6] abbreviates: after administration of G-CSF in vivo, all cases examined.

With `Nc1ccn([C@@H]2O[C@H](CO)[C@@H](O)[C@@H]2O)c(=O)n1` [Ara-C, cytarabine], the “Apoptosis of CD34+CD38+ AML non-stem cells (activated caspase-3)” value in test [1] is reported as “underwent apoptosis”. Moreover, in test [1], the “Apoptosis of CD34+CD38− LSCs (activated caspase-3)” value is on record as “the majority of CD34^+CD38^− LSCs did not”. Moreover, the “Secondary mouse recipients surviving beyond 19 weeks after transplantation” value with LSCs is “None”. Also, the “% G0/G1 of CD34+CD38− AML cells” value in the test on hCD34+CD38− LSCs (setting [5]) is recorded as 91.7+/−2.3%. The “% S of CD34+CD38− AML cells” value with hCD34+CD38− LSCs (setting [5]) is on record as 0.1+/−0.1%. Also, in test [2], the “Cell death in the endosteum (TUNEL and HE staining)” value was “TUNEL-negative AML cells remaining in the endosteum”. Moreover, the “#CD45+CD34+/mouse (×10^6)” value in test [3] (Case ID 1) is given as 1.4 +/− 0.3 ×10^6; in test [3] (Case ID 2), 4.9 +/− 0.7 ×10^6; in test [3] (Case ID 3), 2.3 +/− 0.1 ×10^6; in test [3] (Case ID 4), 3.6 +/− 0.8 ×10^6; in test [3] (Case ID 5), 2.1 +/− 0.2 ×10^6; in test [3] (Case ID 6), 5.3 +/− 1.4 ×10^6. In addition, the “#CD45+CD34+/mouse (×10^6)” value in test [3] (Case ID 7) was 0.7 +/− 0.1 ×10^6. Further, the “% CD45+CD34+” value in test [3] (Case ID 1) was 29.7 +/− 1.6%; in test [3] (Case ID 2), 84.9 +/− 2.5%; in test [3] (Case ID 3), 80.2 +/− 2.3%; in test [3] (Case ID 4) it was 68.0 +/− 2.8%; in test [3] (Case ID 5) it was 61.5 +/− 7.5%; in test [3] (Case ID 6), 49.0 +/− 9.2%. Moreover, in test [3] (Case ID 7), the “% CD45+CD34+” value was 16.5 +/− 1.7%.

B1: G-CSF: recombinant human G-CSF (Wako, Japan), granulocyte colony stimulation factor (protein)
chain: TPLGPASSLPQSFLLKCLEQVRKIQGDGAALQEKLVSECATYKLCHPEELVLLGHSLGIPWAPLSSCPSQALQLAGCLSQLHSGLFLYQGLLQALEGISPELGPTLDTLQLDVADFATTIWQQMEELGMAPALQPTQGAMPAFASAFQRRAGGVLVASHLQSFLEVSYRVLRHLAQP
On to B1, for which the “Expression of Ki67 in AML cells in BM center and endosteal region” value in test [4] (after 5 days of administration of G-CSF) is “expression of Ki67 was induced”. The “BrdU uptake of AML cells in the endosteal region” value in test [4] (after administration of G-CSF) was “increase in BrdU uptake”. Further, in the test on hCD34+CD38− LSCs (setting [6]), the “LSCs in the G0 phase fraction” value is listed as “decreased significantly”; the “LSCs in the S phase and G2/M phase” value was “increased”.
